Read-outs that look alike come from different tables or passages of the source.
What was measured:
P. falciparum 3D7 = experiment: in vitro asexual P. falciparum imaging assay, 3D7 strain; type: cell-based
Description: (§1) The antiplasmodial in vitro assay was performed as previously described.[13] In brief, P. falciparum parasites (3D7 and Dd2 strains) were grown in RPMI-1640 medium supplemented with 25 mM HEPES, 5% AB human male serum, 2.5 mg mL^−1 Albumax II, and 0.37 mM hypoxanthine. Parasites were subjected to two rounds of sorbitol synchronization prior to compound addition. Ring stage parasites were incubated with compounds in 384-well imaging CellCarrier microplates, for 72 h at 37 °C, 90% N2, 5% CO2, 5% O2, parasites stained with 4′,6-diamidino-2-phenylindole (DAPI) and imaged using an Opera QEHS microplate confocal imaging system (PerkinElmer). Images were analysed as previously described,[13] and raw data normalized using the in-plate positive and negative controls to obtain percent inhibition, used to calculate IC50 values, through a four-parameter logistic curve fitting in Prism (GraphPad).

P. falciparum Dd2 = experiment: in vitro asexual P. falciparum imaging assay, Dd2 strain; type: cell-based
Description: as §1

HEK293 cells = experiment: HEK293 cell viability (resazurin) assay; type: cell-based, Human; conditions: for IC50 / inhibition at 80 µM: Homo sapiens; for IC50: HEK293, 72 h; for SI, HEK293/3D7: ratio of HEK293 IC50 (or relative IC50) to P. falciparum 3D7 IC50; for inhibition at 80 µM: HEK293, 72 h
Description: Cell viability was assessed using a minor modification of the protocol previously described.[14] Human embryonic kidney cells (HEK293) were maintained in Dulbecco's modified Eagle's medium supplemented with 10% foetal bovine serum.

[1] = Plasmodium falciparum, 3D7, 72 h; read-out: 3D7 IC50
[2] = Plasmodium falciparum, DD2, 72 h; read-out: Dd2 IC50
[3] = ratio of Dd2 IC50 to 3D7 IC50 (cross-resistance)

Row | SMILES | IC50 (P. falciparum 3D7; [1]) [nM] | IC50 (P. falciparum Dd2; [2]) [nM] | Dd2/3D7 (P. falciparum Dd2; [3]) | IC50 (HEK293 cells) [nM] | SI, HEK293/3D7 (HEK293 cells) | inhibition at 80 µM (HEK293 cells) [%] | IC50 (P. falciparum 3D7; Plasmodium falciparum, 3D7, 72 h, read-out: 3D7 IC50) [nM] | IC50 (P. falciparum Dd2; Plasmodium falciparum, DD2, 72 h, read-out: Dd2 IC50) [nM]
1 | CC(C)CCc1sc(NC(=O)c2cc(NC(=O)c3ccc(/C=C/c4ccc(F)cc4)nc3)cn2C)nc1C(=O)NCCCN(C)C.O=C(O)C(F)(F)F [S-MGB-376] | 147.2 ± 1.4 | 135 ± 1.6 | 0.9 | 9100 | 62 |  |  | 
2 | Cn1cc(NC(=O)c2cc(NC(=O)c3ccc(NC(=O)c4cccc(F)c4)cc3)cn2C)cc1C(=O)NCCC(=N)N.O=C(O)C(F)(F)F [S-MGB-389] | 857.5 ± 1.3 | 488 ± 1.8 | 0.6 |  | >46.6 | 92 |  | 
3 | CC(C)CCn1cc(NC(=O)c2cc(NC(=O)c3cc(NC(=N)c4cc5ccccc5cn4)cn3C)cn2C)cc1C(=O)NCCCN(C)C.O=C(O)C(F)(F)F [S-MGB-330] | 407.7 ± 0.1 | 636.1 ± 0.4 | 1.6 |  | >98.1 | 100 |  | 
4 | CC(C)n1cc(NC(=O)c2cc(NC(=O)c3ccc(/C=C/c4cnc5ccccc5c4)cc3)cn2C)cc1C(=O)NCCN1CCOCC1.O=C(O)C(F)(F)F [S-MGB-192] | 96.3 ± 12.8 | 108 ± 20.6 | 1.1 | 3190 | 33 |  |  | 
5 | CC(C)CCc1sc(NC(=O)c2cc(NC(=O)c3ccc(/C=C/c4ccc(F)cc4)cc3)cn2C)nc1C(=O)NCCCN(C)C.O=C(O)C(F)(F)F [S-MGB-379] | 150 ± 2.7 | 148 ± 5.4 | 1.0 | 8340 | 56 |  |  | 
6 | CC(C)CCc1sc(NC(=O)c2cc(NC(=O)c3cc(NC(=O)c4cccc(F)c4)cn3C)cn2C)nc1C(=O)NCCCN(C)C.O=C(O)C(F)(F)F [S-MGB-386] | 254.9 ± 1.2 | 207.1 ± 1.3 | 0.8 |  | >157 | 101 |  | 
7 | Cn1cc(NC(=O)c2cc(NC(=O)c3ccc(/C=C/c4ccc5nsnc5c4)cc3)cn2C)cc1C(=O)NCCN1CCOCC1.O=C(O)C(F)(F)F [S-MGB-188] | 57 ± 0.1 | 61.9 ± 0.3 | 1.1 |  | >193 | 86 |  | 
8 | Cn1cc(NC(=O)c2cc(NC(=O)c3ccc(/C=C/c4cccc(F)c4)cc3)cn2C)cc1C(=O)NCCC(=N)N.O=C(O)C(F)(F)F [S-MGB-391] | 671.3 ± 1.4 | 1295.5 ± 0.7 | 1.9 |  | >59.6 | 100 |  | 
9 | Cn1cc(NC(=O)c2cc(NC(=O)c3ccc(/C=C/c4ccc(F)cc4)cc3)cn2C)cc1C(=O)NCCC(=N)N.O=C(O)C(F)(F)F [S-MGB-390] | 532.6 ± 0.9 | 640.2 ± 0.6 | 1.2 |  | >75.1 | 78 |  | 
10 | Cn1cc(NC(=O)c2cc(NC(=O)c3ccc(NC(=O)c4ccc(F)cc4)cc3)cn2C)cc1C(=O)NCCC(=N)N.O=C(O)C(F)(F)F [S-MGB-388] | 181 ± 2.2 | 228.6 ± 2 | 1.3 |  | >192.9 | 93 |  | 
11 | COc1ccc(/C=C/c2ccc(C(=O)Nc3cc(C(=O)Nc4cc(C(=O)NCCC(=N)N)n(C)c4)n(C)c3)cc2)cc1.O=C(O)C(F)(F)F [S-MGB-367] | 367.3 ± 0.9 | 620.3 ± 0.3 |  |  | >108.9 | 81 |  | 
12 | COc1ccc(C[C@H](N)C(=O)N[C@H]2[C@@H](O)[C@H](n3cnc4c(N(C)C)ncnc43)O[C@@H]2CO)cc1 [Puromycin, puromycin, reference compound] | 41.9 ± 7.2 | 49.3 ± 3.5 | 1.2 | 378 | 9 |  |  | 
13 | COc1cccc(/C=C/c2ccc(C(=O)Nc3cc(C(=O)Nc4cc(C(=O)NCCN(C)C)n(C)c4)n(C)c3)cc2)c1.O=C(O)C(F)(F)F [S-MGB-247] | 108.9 ± 0.2 | 138.6 ± 0.2 | 1.3 |  | >183.7 | 100 |  | 
14 | CC(C)CCc1sc(NC(=O)c2cc(NC(=O)c3ccc(/C=C/c4cccc(F)c4)cc3)cn2C)nc1C(=O)NCCCN(C)C.O=C(O)C(F)(F)F [S-MGB-378] | 150 ± 4 | 171 ± 2.9 | 1.1 | 10500 | 70 |  |  | 
15 | CN(C)CCNC(=O)c1cc(NC(=O)c2cc(NC(=O)c3ccc(/C=C/c4ccc(N(C)C)cc4)nc3)cn2C)cn1C.O=C(O)C(F)(F)F [S-MGB-246] | 43 ± 0.6 | 53 ± 0.4 | 1.2 | 3860 | 90 |  |  | 
16 | CC(C)CCc1sc(NC(=O)c2cc(NC(=O)c3ccc(/C=C/c4cccc(C(F)(F)F)c4)nc3)cn2C)nc1C(=O)NCCCN(C)C.O=C(O)C(F)(F)F [S-MGB-380] | 74.7 ± 2.8 | 83.9 ± 3.6 | 1.1 | 8200 | 110 |  |  | 
17 | CN(C)CCCNC(=O)c1cc(NC(=O)c2cc(NC(=O)c3cc(NC(=N)c4cc5ccccc5cn4)cn3C)cn2C)cn1C.O=C(O)C(F)(F)F [S-MGB-337] | 95.6 | 101.8 ± 0.2 | 1.1 |  | >219.7 | 101 |  | 
18 | Cn1cc(NC(=O)c2cc(NC(=O)c3ccc(/C=C/c4ccc(C(F)(F)F)cc4)cc3)cn2C)cc1C(=O)NCCN1CCOCC1.O=C(O)C(F)(F)F [S-MGB-176] | 756 ± 0.8 | 1236 ± 3 | 1.6 |  | >53 | 80 |  | 
19 | CC(C)CCc1sc(NC(=O)c2cc(NC(=O)c3ccc(/C=C/c4ccc(C(F)(F)F)cc4)cc3)cn2C)nc1C(=O)NCCCN(C)C.O=C(O)C(F)(F)F [S-MGB-377] | 73.1 ± 4.7 | 105 ± 6.3 | 1.4 | 4300 | 59 |  |  | 
20 | CN(C)c1ccc(/C=C/c2ccc(C(=O)Nc3cc(C(=O)Nc4cc(C(=O)NCCN5CCOCC5)n(C)c4)n(C)c3)cn2)cc1.O=C(O)C(F)(F)F [S-MGB-245] | 161 ± 0.5 | 169.1 ± 0.5 | 1.1 | 2750 | 17 |  |  | 
21 | COc1ccc2nc3cc(Cl)ccc3c(Nc3cc(CN4CCCC4)c(O)c(CN4CCCC4)c3)c2n1 [Pyronaridine, pyronaridine, reference compound] | 26.7 ± 3.8 | 33.3 ± 6.1 | 1.3 | 3050 | 114 |  |  | 
22 | Cn1cc(NC(=O)c2cc(NC(=O)c3ccc(/C=C/C(=O)Nc4ccccc4O)cc3)cn2C)cc1C(=O)NCCC(=N)N.O=C(O)C(F)(F)F [S-MGB-361] | 633.9 ± 0.2 | 558.5 ± 0.4 | 0.9 |  | >63.1 | 90 |  | 
23 | CCN(CC)CCCC(C)Nc1ccnc2cc(Cl)ccc12 (centres unmarked) [Chloroquine, chloroquine, reference compound] |  |  | 7.2 |  |  |  | 31.3 ± 9.7 | 225 ± 84.4
24 | CCc1nc(N)nc(N)c1-c1ccc(Cl)cc1 [Pyrimeth-amine, pyrimethamine, reference compound] | 2.69 ± 0.26 | > 80000 |  | 3980 | 1478 |  |  | 
25 | COc1cccc(/C=C/c2ccc(C(=O)Nc3cc(C(=O)Nc4cc(C(=O)NCCCN(C)C)n(C)c4)n(C)c3)cc2)c1.O=C(O)C(F)(F)F [S-MGB-131] | 200 | 254.4 ± 0.2 | 1.3 |  |  | 101 |  | 
26 | CN(C)CCNC(=O)c1cc(NC(=O)c2cc(NC(=O)c3ccc(/C=C/c4cnc5ccccc5c4)cc3)cn2C)cn1C.O=C(O)C(F)(F)F [S-MGB-248] | 33.4 ± 0.7 | 57 ± 0.6 | 1.7 | 3130 | 94 |  |  | 

Source: article PMC11528320, “S-MGBs bearing amidine tail groups are potent, selective antiplasmodial agents” (RSC Medicinal Chemistry, 2024)
